Reference: patent US10945972B2, “Particulate materials” (Nektar Therapeutics, priority 2002, dated 2021)
Where a name gives a salt, the structure may show the parent alone. Blank lines part the entries; values can stand above or below the compound they belong to.

Key:
Assay type in all cases: physicochemical
[1] = Laser diffraction HELOS/RODOS of TBS (Example 8); details: for Sympatec D4, 3 (μm): 2 bar
Experimental: A small amount of TBS powder was analysed using a laser diffraction RODOS/VIBRI dispersing system (HELOS/RODOS, Sympatec GmbH, Clausthal-Zellerfeld, Germany). The instrument consisted of a laser sensor HELOS and a RODOS dry-powder air-dispersion system (Sympatec GmbH, Clausthal-Zellerfeld, Germany). Different measurement ranges of the laser sensor were provided by interchangeable objectives R1 (0.1-35 μm) and R2 (0.25-87.5 μm). The rate of powder dispersion was controlled by adjusting the pressure of the compressed air flow. A pressure of 2 bar was sufficient to achieve deagglomeration of primary particles without attrition.

[2] = AEROSIZER time-of-flight of TBS (Example 8)
Experimental: The TBS samples were also analysed using an AEROSIZER™ (Amherst Process Instruments, Amherst, Mass., USA), provided with pulse jet disperser, the AERODISPERSER™, to introduce the powders to the instrument. The measurement range of the AEROSIZER™ is nominally from 0.2 to 200 μm of aerodynamic diameter with the standard 750 μm diameter tapered nozzle. The micronized and SEDS™ TBS samples were analyzed for 300 seconds in triplicate using normal deagglomeration conditions, feed rate (5000 particles per second) and medium shear force (0.5 psi).

[3] = Inverse gas chromatography of TBS (Example 8)
Experimental: An empty GC column was uniformly packed with the powder of interest (TBS). Pre-silanized commercially available straight glass columns of 30 cm length with a 3 mm internal diameter were used in this investigation. The silanation procedure was necessary to minimize active sites on the inner glass surfaces, which strongly interact with polar probes. Each column was packed at the detector end with a small amount of silanised glass wool, was clipped to a stand and powder was added through a glass funnel with the aid of a mechanical column packer (tapping) to improve powder flow and remove any air gaps. […] A. Hewlett Packard 6890 Series Gas Chromatograph (GC) (Hewlett Packard, Penna, USA) oven equipped with an autosampler was used to control the solvent temperature. The 6890 GC data acquisition system was used to record data from a thermal conductivity detector (TCD) and flame ionisation detector (FID) with the instrument modified for IGC by Surface Measurement Systems (SMS), Manchester, UK. The combination of detectors allowed sensitive analysis of both organic vapour elution and water (although RH was not raised above 0% for these experiments).
The whole system was fully automated by control software (SMS iGC Controller v1.3) and the data analyzed using SMS iGC Analysis macros. Prior to analysis, each column was equilibrated at 30° C. and 0% relative humidity (RH) for 5 hours by passing dry helium gas through the column. Helium gas was also used as the carrier gas. Hydrogen and compressed air flow rates were set at 40 and 450 ml min respectively for the FID. The chromatograph injection port was maintained at 80° C., TCD detector at 150° C. and the FID detector at 150° C. Column temperature was set at 30° C. throughout analysis. Data were obtained by flowing helium gas at 10 ml min^−1 through the sinalized glass column packed with a known weight of powdered material and injecting small amounts (concentration P/Po=0.05) of a range of probe vapors with different polarities. The retention times of the probes were measured using SMS iGC Controller v1.3 software, at infinite dilution or near zero surface coverage (equivalent to 10^−4-10^−7 μl of liquid) where retention is independent of the quantity of probe injected. For each sample, two columns were prepared and analysed by employing a method based on standard settings, which allows the precise control and measurement of experimental variables. This is essential in producing meaningful results. The data were used to calculate the dispersive and non-dispersive forces acting at TBS particle surfaces using the method developed by Schultz and co-workers (J. Schultz, L. Lavielle and C. Martin. The role of the interface in carbon fibre-epoxy composites, J. Adhesion, 23, 45-60 (1987)).

[4] = Differential scanning calorimetry (Example 8); details: DSC, 10° C. min^−1
Experimental: Prior to sample analysis, a baseline was obtained which was used as a background. […] Temperature and enthalpy were calibrated with the standard materials indium (melting point=156.6° C.) and zinc (melting point=419.5° C.). Samples (1-10) were accurately weighed into pierced, crimped aluminium pans and heated at 10° C. min^−1 over a heating range of 25-290° C. under a nitrogen purge. A chiller unit was used in conjunction with the calorimeter to attain the lower temperatures.

[5] = Isothermal microcalorimetry, TAM with RH ramp (Example 8); details: 25° C., RH ramp 0 to 90% at 3% RH/hr
Experimental: A Thermal Activity Monitor (TAM, model 2277; Thermometric A B, Jrflla, Sweden) was used to measure the calorimetric heat flow (μW) vs. % RH profile of each sample. A RH-perfusion cell (Model 2255-120) accessory for the TAM was used to control RH within the sample vessel. The carrier gas, dry N2, was flowed at a constant rate (1.48 cm^3/min). All experiments were performed at 25° C. About 100 to 105 mg accurately weighed of each powder were placed in a stainless steel ampoule, attached to the RH perfusion cell, and then dried under 0% RH until a stable heat flow signal was reached (e.g., a signal within the range of −1 to +1 μW). The RH was then increased in a linear ramp from 0 to 90% over the following 30 hours (i.e., 3% RH/hr). The heat flow arising from interactions of water vapor with the solid sample was measured as a function of time. Since RH changed with time in a linear fashion, the heat flow was also known as a function of RH.
The TAM measures the total heat flow in power, P, produced from either a physical or chemical reaction. In this study, the calorimetric power is proportional to the rate of moisture sorption or desorption, crystallization, and/or other processes. Exothermic events are measured as a deflection in the positive y-axis direction. Although crystallization is an exothermic process, it can be observed as a net endothermic process. During crystallization, there is an exotherm due to crystallization and a simultaneous endotherm due to desorption of previously sorbed moisture. The TAM profile gives the resultant of these processes.

[6] = Inverse gas chromatography surface energy (Example 1); details: 303K; for ΔGA (kJ/mol) Acetone: probe acetone; for ΔGA (kJ/mol) Chloroform: probe chloroform; for ΔGA (kJ/mol) Dioxane: probe dioxane; for ΔGA (kJ/mol) Ethyl acetate: probe ethyl acetate; for ΔGA (kJ/mol) Toluene: probe toluene
Source text: For TBS and FHBr powders, IGC was done using a Hewlett Packard Series 6890 instrument which was specifically modified for IGC measurements by Surface Measurement Systems Ltd (Manchester, UK). The IGC method is described in detail by Tong et al. 2001. (Tong H. H. Y., B. Y. Shekunov, P. York, A. H. L. Chow, 2001. Pharm. Res. 18, 852.) Triplicate measurements in separate packed columns were made. […] The γS^D and ΔGA values were obtained at 303K.

[7] = AEROFLOW powder avalanching (Example 8); details: listed as Micronized
Experimental: An AEROFLOW™ powder avalanching apparatus (Amherst Process Instruments, API, Amherst, USA) was employed to analyze the dynamic avalanching behaviour of micronized and SC processed TBS samples. The AEROFLOW™ apparatus consists of a transparent rotating drum with a port at the front. A white light source is positioned in front of the drum and a masked array of photocells is behind the drum. To measure avalanching, 50 ml of the drug powder was added to the drum, which is about 15% of its total volume to ensure good powder mixing during the operation. As the drum rotates, the powder bed is carried upwards until an unstable state is reached and an avalanche occurs.
The time between successive avalanches was recorded by the projection of the light beam through the drum onto the photocell array. The photocells generated a voltage dependent on the amount of light falling on the cells and the area of unmasked photocells shielded from the light source by the powder. The voltage output (transmitted light intensity) was recorded by a computer, which translates the output as powder movement using a technique disclosed in B. H. Kaye. Characterizing the flowability of a powder using the concepts of fractal geometry and chaos theory, Part. Part. Charact. 14: 53-66 (1997). Each TBS sample was tested in duplicate and mean avalanche time and irregularity (scatter) of avalanches were recorded.

[8] = Particle size by Helos/Rodos laser diffraction (Example 1); details: geometric projection-equivalent volume mean diameter
Experimental: (§1) PSD measurements were performed using firstly, AEROSIZER® time-of-flight instrument equipped with AERO-[…]® (TSI Inc., Minneapolis. USA) and secondly, laser diffraction sensor Helos with dry-powder air-dispersion system Rodos (Sympatec GmbH. Germany). The volume mean particle diameter, VMD, was obtained for both instruments using software options. In the general case of non-spherical particles, these instruments cannot provide the exact value of VMD, however, the time-of-flight technique gives an aerodynamic-equivalent particle diameter, whereas the laser diffraction method provides the geometric projection-equivalent diameter. These diameters afford the complementary information on PSD and therefore can be used for comparative size analysis.

[9] = Particle size by AeroSizer time-of-flight (Example 1); details: aerodynamic-equivalent volume mean diameter
Experimental: as §1

[10] = AFM adhesion force of particles (Example 10); details: for adhesion force per unit area: following correction for surface area; for initial adhesion force for individual particles: in 2H 3H perfluoropentane
Experimental: The example assessed the force of adhesion of particles of salbutamol sulfate produced using a SEDS™ processes compared to the same compound in micronized form. Conventional AFM analysis was used. Particles of the samples were mounted onto AFM probes and the adhesion force per unit area to a freshly cleaved highly oriented pyrolytic graphite substrate (HOP G, Agar Scientific, Essex, UK) in a liquid (2H 3H perfluoropentane) environment was determined. The contact area involved in the interaction was assessed and related to the force measurements.

[11] = listed as micronized terbutaline sulphate

Sympatec D4, 3 (μm) [1]: 3.22 μm
Aerosizer D4, 3 (μm) [2]: 3.31 μm
KA [3]: 0.761
γs^D mJm^−2 ([3]; 30° C., 0% RH): 57.37 mJm^−2
−ΔGA^SP (kJ/mol) Acetone ([3]; probe acetone): 13.41 kJ/mol
−ΔGA^SP (kJ/mol) Ethyl acetate ([3]; probe ethyl acetate): 16.65 kJ/mol
−ΔGA^SP (kJ/mol) Toluene ([3]; probe toluene): 3.66 kJ/mol
Enthalpy of Fusion [4]: 127.12 J/g
Enthalpy of Fusion ([4]; listed as TBS1): 127.12 J/g
Compound: CC(C)(C)NCC(O)c1cc(O)cc(O)c1 (stereo not drawn) [TBS 1, terbutaline sulfate]
RH of thermal event in TAM profile [5]: No exothermic or endothermic peaks were observed

γs^D (mJ/m^2) [6]: 58.61 mJ/m^2
ΔGA (kJ/mol) Acetone [6]: 12.57 kJ/mol
ΔGA (kJ/mol) Chloroform [6]: 1.79 kJ/mol
ΔGA (kJ/mol) Dioxane [6]: 15.96 kJ/mol
ΔGA (kJ/mol) Ethyl acetate [6]: 16.01 kJ/mol
ΔGA (kJ/mol) Toluene [6]: 3.42 kJ/mol
Sympatec D4, 3 (μm) [1, 11]: 3.0 μm
particle size, 90% less than [1, 11]: less than 5 μm
Irregularity of flow ([7]; 100 sec/rev): 1.28 s
Mean time to avalanche ([7]; 100 sec/rev): 3.62 s
Irregularity of flow ([7]; 145 sec/rev): 2.39 s
Mean time to avalanche ([7]; 145 sec/rev): 5.72 s
VMD (μm) (laser diffraction) [8]: 3.04 μm
VMD (μm) (Time of flight) [9]: 2.7 μm
RH of thermal event in TAM profile ([5]; listed as micronized TBS): about 79 % RH
Compound: CC(C)(C)NCC(O)c1cc(O)cc(O)c1 (stereo not drawn) [TSB Micronised, terbutaline sulphate, reference compound]

Sympatec D4, 3 (μm) [1]: 4.75 μm
Aerosizer D4, 3 (μm) [2]: 15.53 μm
Enthalpy of Fusion [4]: 40.98 J/g
Compound: CC(C)(C)NCC(O)c1cc(O)cc(O)c1 (stereo not drawn) [TBS 4, terbutaline sulfate]

adhesion force per unit area [10]: 13.52 nN/μm^2
initial adhesion force for individual particles [10]: 4.21 nN
Compound: salbutamol sulfate [SEDS™ produced material]

Compound: CC(Cc1ccc(O)cc1)NCC(O)c1cc(O)cc(O)c1 (stereo not drawn) [FHBr Micronised, fenoterol hydrobromide, reference compound]
γs^D (mJ/m^2) ([6]; hydrobromide): 48.53 mJ/m^2
ΔGA (kJ/mol) Chloroform ([6]; hydrobromide): 0.69 kJ/mol
ΔGA (kJ/mol) Toluene ([6]; hydrobromide): 4.77 kJ/mol
VMD (μm) (laser diffraction) ([8]; hydrobromide): 2.34 μm
VMD (μm) (Time of flight) [9]: 1.7 μm

adhesion force per unit area [10]: 100.91 nN/μm^2
initial adhesion force for individual particles [10]: 15.77 nN
Compound: salbutamol sulfate [micronized material, reference compound]

Sympatec D4, 3 (μm) [1]: 4.84 μm
Aerosizer D4, 3 (μm) [2]: 11.44 μm
Enthalpy of Fusion [4]: 57.69 J/g
Compound: CC(C)(C)NCC(O)c1cc(O)cc(O)c1 (stereo not drawn) [TBS 5, terbutaline sulfate]

Sympatec D4, 3 (μm) [1]: 1.99 μm
Aerosizer D4, 3 (μm) [2]: 6.69 μm
Enthalpy of Fusion [4]: 31.35 J/g
Compound: CC(C)(C)NCC(O)c1cc(O)cc(O)c1 (stereo not drawn) [TBS 3, terbutaline sulfate]

Compound: CC(Cc1ccc(O)cc1)NCC(O)c1cc(O)cc(O)c1 (stereo not drawn) [FHBr SEDS, fenoterol hydrobromide]
γs^D (mJ/m^2) ([6]; hydrobromide): 49.87 mJ/m^2
ΔGA (kJ/mol) Acetone [6]: 13.15 kJ/mol
ΔGA (kJ/mol) Chloroform ([6]; hydrobromide): 0.63 kJ/mol
ΔGA (kJ/mol) Dioxane [6]: 15.32 kJ/mol
ΔGA (kJ/mol) Ethyl acetate [6]: 17.48 kJ/mol
ΔGA (kJ/mol) Toluene ([6]; hydrobromide): 3.86 kJ/mol
VMD (μm) (laser diffraction) ([8]; hydrobromide): 3.55 μm
VMD (μm) (Time of flight) [9]: 1.7 μm
